PubChem BioAssay (NCI)
Several values for one entry are separate records, joined by “and”; a condition that tells them apart may be missing. Equal values may be shown once.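 Five concentrations, 48 hours, 96-well plates. At the GI50, growth is halved. TGI denotes the concentration required for complete inhibition of growth.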

Each compound was assayed on SW-620 colon (assay: inhibition of tumour cell growth, NCI panel, 48 h).

| Compound | TGI |
| --- | --- |
| O=C1C(c2c(O)[nH]c3ccc(F)cc23)=Nc2ccccc21 | > 100 µM |
| CCOC(=O)c1nnc2c(C(=O)OCC)c3ccccc3n2c1N | > 100 µM |
| S=c1sc2c(Cl)nc(Cl)nc2n1-c1ccccc1 | 68.1 µM |
| CC12CC(c3ccccc3O1)C(C(=O)Nc1ccc(Cl)cc1Cl)C(=O)N2 (stereo not given) | > 100 µM |
| CCC(C)OC(=O)/C(Br)=C1/OC(=O)c2ccccc2-c2ccccc21 (stereo not given) | > 100 µM |
| NC(=O)C(C(N)=O)=C(O)C(=O)/C=C(\O)c1ccccc1 | > 100 µM |
| Cn1ccc(C(=O)NCCN(CCNC(=O)c2ccn(C)c(=O)c2O)CCNC(=O)c2cccc(=O)n2O)c(O)c1=O | > 100 µM |
| COC(=O)c1cc2ccc(N)nc2[nH]c1=O | > 100 µM |
| Cc1cc(S(=O)(=O)Nc2n[nH]c(N)n2)c(SCC(=O)O)cc1Cl | > 10 µM |
| O=C(O)[C@@H]1CCS(=O)(=O)N1 | > 100 µM |
| CC(C)(C)OC(=O)[C@H]1CCC(=S)N1Cc1ccccc1 | > 100 µM |
| COc1ccc(S(=O)(=O)c2nnc(S(=O)(=O)Cc3ccccc3)s2)cc1 | 44 µM |
| O=[N+]([O-])c1ccc2c(c1)C1=C(CO2)Cc2ccccc2O1 | 53.5 µM |
| NC(=O)C12CC3CC(CC(F)(C3)C1)C2 | > 100 µM |
| O=c1c(/C=C/c2c(O)ccc3ccccc23)nnc2sc(-c3cccc(Br)c3)nn12 | > 100 µM |
| Cc1c(N=Nc2ccc(Cl)cc2)c(-c2ccccc2)n(C2OC(CO)C(O)C(O)C2O)c(=S)c1C#N (stereo not given) | 32.9 µM |
| CC(=O)Oc1c2c(c(O)c3ccccc13)C(n1cnc3c(ncn3C3OC(CO)C4OC(C)(C)OC43)c1=N)CCC2 (stereo not given) | 29.6 µM |
| N#Cc1c(N)n(-c2cccc(C(=O)O)c2)c(=O)c2cc([N+](=O)[O-])ccc12 | > 100 µM |
| CN(C)CCC(=O)c1ccccc1 | 32.4 µM |
| CCOc1ccccc1NC(=O)C(=O)CC(=O)c1sc(Nc2nnc(-c3ccc(Cl)c(Cl)c3)o2)nc1C | > 100 µM |

These compounds were tested on ACHN renal (assay: inhibition of tumour cell growth, NCI panel, 48 h).

| Compound | GI50 | TGI |
| --- | --- | --- |
| O=c1cc(-c2cccc3ccccc23)[nH]c2ncccc12 | 0.0425 µM | > 100 µM |
| COC(=O)c1ccccc1/C=C1\Cc2ccc(C)c(C)c2C1=O | – | > 100 µM |
| COc1cc(C2c3cc4c(cc3OC3(OC)COC(=O)C23)OCO4)cc(OC)c1OC(C)=O (stereo not given) | – | > 100 µM |
| CN1CCOC(c2ccccc2)O1 (stereo not given) | – | > 100 µM |
| CCCNC(=S)NNC(=O)CSc1nc(-c2ccccc2)c(-c2ccccc2)[nH]1 | – | > 100 µM |
| CC(=O)c1sc(Nc2nnc(-c3ccc(-c4nnc(Nc5nc(C)c(C(C)=O)s5)o4)cc3)o2)nc1C | – | > 100 µM |
| CC1c2c(Cl)nc3ccccc3c2Oc2c1c(Cl)nc1ccccc21 | – | > 100 µM |
| COC1(OC)C(N(C)C)=C(Cl)C(=O)/C1=C/C=O | – | > 100 µM |
| OC1C#CCSCC#C/C=C\1 (stereo not given) | – | > 100 µM |
| CC(=O)Oc1ccc2c(C)cc(=O)oc2c1OC(C)=O | – | > 100 µM |
| N#Cc1c2ccccc2cn1-c1ccc(F)cc1 | – | > 100 µM |
| Cc1ccccc1N1C(=O)C2C=CC(n3[nH]c(=O)n(Cc4ccccc4)c3=O)CC2C1=O (stereo not given) | – | > 100 µM |
| CN(CC(=O)O)c1ncc2c(n1)CCCC2 | – | > 100 µM |
| COc1ccc(/C=C2\N=C(SC)N(CN3CCOCC3)C2=O)cc1 | – | > 100 µM |
| O=C(Nc1nc(C23CC4CC(CC(C4)C2)C3)cs1)c1cc2ccc(O)cc2oc1=O | – | 64.3 µM |
| O=C1C(c2c(O)[nH]c3ccc(F)cc23)=Nc2ccccc21 | – | > 100 µM |
| CCOC(=O)c1nnc2c(C(=O)OCC)c3ccccc3n2c1N | – | > 100 µM |
| S=c1sc2c(Cl)nc(Cl)nc2n1-c1ccccc1 | – | > 100 µM |

| Compound | GI50 | TGI |
| --- | --- | --- |
| CC12CC(c3ccccc3O1)C(C(=O)Nc1ccc(Cl)cc1Cl)C(=O)N2 (stereo not given) | – | 67.3 µM |
| CCC(C)OC(=O)/C(Br)=C1/OC(=O)c2ccccc2-c2ccccc21 (stereo not given) | – | > 100 µM |
| NC(=O)C(C(N)=O)=C(O)C(=O)/C=C(\O)c1ccccc1 | – | > 100 µM |
| Cn1ccc(C(=O)NCCN(CCNC(=O)c2ccn(C)c(=O)c2O)CCNC(=O)c2cccc(=O)n2O)c(O)c1=O | – | > 100 µM |
| COC(=O)c1cc2ccc(N)nc2[nH]c1=O | – | > 100 µM |
| Cc1cc(S(=O)(=O)Nc2n[nH]c(N)n2)c(SCC(=O)O)cc1Cl | – | > 10 µM |
| O=C(O)[C@@H]1CCS(=O)(=O)N1 | – | > 100 µM |
| CC(C)(C)OC(=O)[C@H]1CCC(=S)N1Cc1ccccc1 | – | > 100 µM |
| COc1ccc(S(=O)(=O)c2nnc(S(=O)(=O)Cc3ccccc3)s2)cc1 | – | 30.6 µM |
| O=[N+]([O-])c1ccc2c(c1)C1=C(CO2)Cc2ccccc2O1 | – | 29.9 µM |
| NC(=O)C12CC3CC(CC(F)(C3)C1)C2 | – | > 100 µM |
| O=c1c(/C=C/c2c(O)ccc3ccccc23)nnc2sc(-c3cccc(Br)c3)nn12 | – | > 100 µM |
| Cc1c(N=Nc2ccc(Cl)cc2)c(-c2ccccc2)n(C2OC(CO)C(O)C(O)C2O)c(=S)c1C#N (stereo not given) | – | 31.1 µM |
| CC(=O)Oc1c2c(c(O)c3ccccc13)C(n1cnc3c(ncn3C3OC(CO)C4OC(C)(C)OC43)c1=N)CCC2 (stereo not given) | – | 30.9 µM |
| N#Cc1c(N)n(-c2cccc(C(=O)O)c2)c(=O)c2cc([N+](=O)[O-])ccc12 | – | > 100 µM |
| CN(C)CCC(=O)c1ccccc1 | – | > 69.2 µM |
| CCOc1ccccc1NC(=O)C(=O)CC(=O)c1sc(Nc2nnc(-c3ccc(Cl)c(Cl)c3)o2)nc1C | – | > 100 µM |

The compounds below were run on T-47D breast (assay: inhibition of tumour cell growth, NCI panel, 48 h).

| Compound | TGI |
| --- | --- |
| COC(=O)c1ccccc1/C=C1\Cc2ccc(C)c(C)c2C1=O | > 100 µM |
| COc1cc(C2c3cc4c(cc3OC3(OC)COC(=O)C23)OCO4)cc(OC)c1OC(C)=O (stereo not given) | > 100 µM |
| O=C(/C=C/c1cc2ccccc2o1)N1CCN(c2ccccn2)CC1 | > 100 µM |
| CCOC(=O)c1nnc2c(C(=O)OCC)c3ccccc3n2c1N | > 100 µM |
| CC12CC(c3ccccc3O1)C(C(=O)Nc1ccc(Cl)cc1Cl)C(=O)N2 (stereo not given) | 70.9 µM |
| CCC(C)OC(=O)/C(Br)=C1/OC(=O)c2ccccc2-c2ccccc21 (stereo not given) | > 100 µM |
| NC(=O)C(C(N)=O)=C(O)C(=O)/C=C(\O)c1ccccc1 | > 100 µM |
| Cn1ccc(C(=O)NCCN(CCNC(=O)c2ccn(C)c(=O)c2O)CCNC(=O)c2cccc(=O)n2O)c(O)c1=O | > 100 µM |
| COC(=O)c1cc2ccc(N)nc2[nH]c1=O | > 100 µM |
| Cc1cc(S(=O)(=O)Nc2n[nH]c(N)n2)c(SCC(=O)O)cc1Cl | > 10 µM |
| O=C(O)[C@@H]1CCS(=O)(=O)N1 | > 100 µM |
| COc1ccc(S(=O)(=O)c2nnc(S(=O)(=O)Cc3ccccc3)s2)cc1 | 91.9 µM |
| O=[N+]([O-])c1ccc2c(c1)C1=C(CO2)Cc2ccccc2O1 | > 100 µM |
| O=c1c(/C=C/c2c(O)ccc3ccccc23)nnc2sc(-c3cccc(Br)c3)nn12 | 37.3 µM |
| Cc1c(N=Nc2ccc(Cl)cc2)c(-c2ccccc2)n(C2OC(CO)C(O)C(O)C2O)c(=S)c1C#N (stereo not given) | 44.2 µM |
| N#Cc1c(N)n(-c2cccc(C(=O)O)c2)c(=O)c2cc([N+](=O)[O-])ccc12 | > 100 µM |

The compounds below were run on MOLT-4 leukemia (assay: inhibition of tumour cell growth, NCI panel, 48 h).

| Compound | GI50 | TGI |
| --- | --- | --- |
| O=c1cc(-c2cccc3ccccc23)[nH]c2ncccc12 | 0.0449 µM | > 100 µM |
| COC(=O)c1ccccc1/C=C1\Cc2ccc(C)c(C)c2C1=O | – | > 100 µM |
| COc1cc(C2c3cc4c(cc3OC3(OC)COC(=O)C23)OCO4)cc(OC)c1OC(C)=O (stereo not given) | – | > 100 µM |
| CN1CCOC(c2ccccc2)O1 (stereo not given) | – | > 100 µM |
| O=C(/C=C/c1cc2ccccc2o1)N1CCN(c2ccccn2)CC1 | – | > 100 µM |
| CCCNC(=S)NNC(=O)CSc1nc(-c2ccccc2)c(-c2ccccc2)[nH]1 | – | 61.7 µM |
| CC(=O)c1sc(Nc2nnc(-c3ccc(-c4nnc(Nc5nc(C)c(C(C)=O)s5)o4)cc3)o2)nc1C | – | > 100 µM |
| CC1c2c(Cl)nc3ccccc3c2Oc2c1c(Cl)nc1ccccc21 | – | > 100 µM |
| COC1(OC)C(N(C)C)=C(Cl)C(=O)/C1=C/C=O | – | > 100 µM |
| CC(=O)Oc1ccc2c(C)cc(=O)oc2c1OC(C)=O | – | > 100 µM |
| N#Cc1c2ccccc2cn1-c1ccc(F)cc1 | – | 90.5 µM |
| Cc1ccccc1N1C(=O)C2C=CC(n3[nH]c(=O)n(Cc4ccccc4)c3=O)CC2C1=O (stereo not given) | – | > 100 µM |
| CN(CC(=O)O)c1ncc2c(n1)CCCC2 | – | > 100 µM |
| COc1ccc(/C=C2\N=C(SC)N(CN3CCOCC3)C2=O)cc1 | – | > 100 µM |
| O=C(Nc1nc(C23CC4CC(CC(C4)C2)C3)cs1)c1cc2ccc(O)cc2oc1=O | – | 38.1 µM |
| O=C1C(c2c(O)[nH]c3ccc(F)cc23)=Nc2ccccc21 | – | 81.5 µM |
| CCOC(=O)c1nnc2c(C(=O)OCC)c3ccccc3n2c1N | – | > 100 µM |
| S=c1sc2c(Cl)nc(Cl)nc2n1-c1ccccc1 | – | > 100 µM |
| CC12CC(c3ccccc3O1)C(C(=O)Nc1ccc(Cl)cc1Cl)C(=O)N2 (stereo not given) | – | 54.5 µM |
| CCC(C)OC(=O)/C(Br)=C1/OC(=O)c2ccccc2-c2ccccc21 (stereo not given) | – | 50.7 µM |
| Cc1cc(S(=O)(=O)Nc2n[nH]c(N)n2)c(SCC(=O)O)cc1Cl | – | > 10 µM |
| NNC(=O)c1n[nH]nc1C(=O)NN | – | > 100 µM |
| O=C(O)[C@@H]1CCS(=O)(=O)N1 | – | > 100 µM |
| CC(C)(C)OC(=O)[C@H]1CCC(=S)N1Cc1ccccc1 | – | > 100 µM |
| NC(=O)C12CC3CC(CC(F)(C3)C1)C2 | – | > 100 µM |
| O=c1c(/C=C/c2c(O)ccc3ccccc23)nnc2sc(-c3cccc(Br)c3)nn12 | – | 40.3 µM |
| Cc1c(N=Nc2ccc(Cl)cc2)c(-c2ccccc2)n(C2OC(CO)C(O)C(O)C2O)c(=S)c1C#N (stereo not given) | – | 33.2 µM |
| CC(=O)Oc1c2c(c(O)c3ccccc13)C(n1cnc3c(ncn3C3OC(CO)C4OC(C)(C)OC43)c1=N)CCC2 (stereo not given) | – | 35.9 µM |
| CN(C)CCC(=O)c1ccccc1 | – | 59.9 µM |
| CCOc1ccccc1NC(=O)C(=O)CC(=O)c1sc(Nc2nnc(-c3ccc(Cl)c(Cl)c3)o2)nc1C | – | > 100 µM |

Each compound was assayed on COLO 205 colon (assay: inhibition of tumour cell growth, NCI panel, 48 h).

| Compound | TGI |
| --- | --- |
| O=c1cc(-c2cccc3ccccc23)[nH]c2ncccc12 | 0.0587 µM and 0.136 µM |
| COC(=O)c1ccccc1/C=C1\Cc2ccc(C)c(C)c2C1=O | > 100 µM |
| COc1cc(C2c3cc4c(cc3OC3(OC)COC(=O)C23)OCO4)cc(OC)c1OC(C)=O (stereo not given) | > 49.3 µM |
| CN1CCOC(c2ccccc2)O1 (stereo not given) | > 100 µM |
| O=C(/C=C/c1cc2ccccc2o1)N1CCN(c2ccccn2)CC1 | > 100 µM |
| CCCNC(=S)NNC(=O)CSc1nc(-c2ccccc2)c(-c2ccccc2)[nH]1 | > 100 µM |
| CC(=O)c1sc(Nc2nnc(-c3ccc(-c4nnc(Nc5nc(C)c(C(C)=O)s5)o4)cc3)o2)nc1C | > 100 µM |
